Laboratory results reported in ChEMBL document CHEMBL1201862, “PubChem BioAssay data set” (2004).
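Five concentrations, 48 hours, 96-well plates. The concentration for 50% growth inhibition is given as GI50.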 The source made the active and inactive calls. No stated cut-off is given here; in the data, active = GI50 up to about 1.1 µM and inactive = higher. Residues, ends and D or L forms follow the SMILES beside them. *: point of attachment. Boc = CC(C)(C)OC(=O)*; OBn = c1ccc(CO*)cc1

Columns and labels:
Test in all cases: NCI anticancer screen, dose series, 48 h
UACC-257 = system: UACC-257
MDA-N = system: MDA-N
MDA-MB-435 = system: MDA-MB-435
LOX IMVI = system: LOX IMVI
SNB-19 = system: SNB-19
NCI-H226 = system: NCI-H226
SK-OV-3 = system: SK-OV-3
U-251 = system: U-251
RXF 393 = system: RXF 393
OVCAR-4 = system: OVCAR-4
NCI-H460 = system: NCI-H460
Hs-578T = system: Hs-578T
KM12 = system: KM12
Malme-3M = system: Malme-3M
OVCAR-8 = system: OVCAR-8
OVCAR-3 = system: OVCAR-3
MOLT-4 = system: MOLT-4
PC-3 = system: PC-3
NCI-H23 = system: NCI-H23
HCT-15 = system: HCT-15

Row | SMILES | GI50 (UACC-257) | GI50 (MDA-N) | GI50 (MDA-MB-435) | GI50 (LOX IMVI) | GI50 (SNB-19) | GI50 (NCI-H226) | GI50 (SK-OV-3) | GI50 (U-251) | GI50 (RXF 393) | GI50 (OVCAR-4) | GI50 (NCI-H460) | GI50 (Hs-578T) | GI50 (KM12) | GI50 (Malme-3M) | GI50 (OVCAR-8) | GI50 (OVCAR-3) | GI50 (MOLT-4) | GI50 (PC-3) | GI50 (NCI-H23) | GI50 (HCT-15) [µM]
1 | Cn1c(N)nc2c(nc(OCc3ccccc3)n2C2OC(CO)C(O)C2O)c1=O (stereo not drawn) | > 100 µM (inactive) | > 100 µM (inactive) | > 100 µM (inactive) | > 100 µM (inactive) | > 100 µM (inactive) | > 100 µM (inactive) | > 100 µM (inactive) | > 100 µM (inactive) | > 100 µM (inactive) | > 100 µM (inactive) | > 100 µM (inactive) | > 100 µM (inactive) | > 100 µM (inactive) | > 100 µM (inactive) | > 100 µM (inactive) | > 100 µM (inactive) | 71.8 µM (inactive) | > 100 µM (inactive) | – | –
2 | CNC(=O)c1ccccc1-[s+]1c2ccccc2c(=O)n1C (stereo not drawn) | > 100 µM (inactive) | > 100 µM (inactive) | > 100 µM (inactive) | > 100 µM (inactive) | > 100 µM (inactive) | > 100 µM (inactive) | – | > 100 µM (inactive) | > 100 µM (inactive) | > 100 µM (inactive) | – | > 100 µM (inactive) | > 100 µM (inactive) | > 100 µM (inactive) | > 100 µM (inactive) | > 100 µM (inactive) | > 100 µM (inactive) | > 100 µM (inactive) | > 100 µM (inactive) | > 100
3 | O=[N+]([O-])c1ccc(NN=C2c3ccccc3Cc3ccccc32)c([N+](=O)[O-])c1 | 6.35 µM (inactive) | 1.88 µM (inactive) | 1.79 µM (inactive) | 7.87 µM (inactive) | – | 29.6 µM (inactive) | 7.74 µM (inactive) | 4.5 µM (inactive) | > 24.4 µM (inactive) | 13.3 µM (inactive) | 3.91 µM (inactive) | 4.07 µM (inactive) | 2.98 µM (inactive) | 3.39 µM (inactive) | 45.8 µM (inactive) | 2.39 µM (inactive) | 6.87 µM (inactive) | 4.95 µM (inactive) | 15 µM (inactive) | 6.43
4 | COc1c(C)c(OC)c(C(=O)CC(C)C)c(OC)c1C | > 100 µM (inactive) | > 100 µM (inactive) | > 100 µM (inactive) | 62.7 µM (inactive) | 24.9 µM (inactive) | > 100 µM (inactive) | > 100 µM (inactive) | > 100 µM (inactive) | > 100 µM (inactive) | 23.6 µM (inactive) | – | > 100 µM (inactive) | 74 µM (inactive) | > 100 µM (inactive) | > 100 µM (inactive) | > 100 µM (inactive) | 43.7 µM (inactive) | 52.4 µM (inactive) | 83 µM (inactive) | 37.1
5 | Oc1ccc[n+](Cc2ccccc2)c1 | > 100 µM (inactive) | > 100 µM (inactive) | > 100 µM (inactive) | > 100 µM (inactive) | > 100 µM (inactive) | > 100 µM (inactive) | > 100 µM (inactive) | > 100 µM (inactive) | > 100 µM (inactive) | – | > 100 µM (inactive) | > 100 µM (inactive) | > 100 µM (inactive) | > 100 µM (inactive) | > 100 µM (inactive) | > 100 µM (inactive) | > 100 µM (inactive) | > 100 µM (inactive) | > 100 µM (inactive) | > 100
6 | O=c1n(CC2CO2)c(=O)n(CC2CO2)c(=O)n1CC1CO1 (stereo not drawn) [TEROXIRONE] | 32.7 µM (inactive) | 20.8 µM (inactive) | 17.9 µM (inactive) | 14.1 µM (inactive) | 26.2 µM (inactive) | 26.6 µM (inactive) | 36.1 µM (inactive) | 11 µM (inactive) | 37 µM (inactive) | 45.2 µM (inactive) | 2.03 µM (inactive) | 33.8 µM (inactive) | 56.1 µM (inactive) | 25.4 µM (inactive) | 33.3 µM (inactive) | 32.7 µM (inactive) | 2.35 µM (inactive) | 25 µM (inactive) | 16.7 µM (inactive) | –
7 | Cc1ccc(S(=O)(=O)c2c(O)c3ccccc3n(C)c2=O)cc1 | > 100 µM (inactive) | > 100 µM (inactive) | > 100 µM (inactive) | – | > 100 µM (inactive) | > 100 µM (inactive) | > 100 µM (inactive) | > 100 µM (inactive) | > 100 µM (inactive) | > 100 µM (inactive) | > 100 µM (inactive) | > 100 µM (inactive) | > 100 µM (inactive) | > 100 µM (inactive) | > 100 µM (inactive) | > 100 µM (inactive) | – | > 100 µM (inactive) | > 100 µM (inactive) | > 100
8 | CC(C)CC(NC(=O)OC(C)(C)C)C(=O)NC(CC(=O)OCc1ccccc1)C(=O)OCc1ccccc1 (stereo not drawn) (Boc-Leu-Asp(OBn)-OBn; configuration not given here) | 32.9 µM (inactive) | 42.2 µM (inactive) | 40.1 µM (inactive) | 22.8 µM (inactive) | 29.4 µM (inactive) | 57.9 µM (inactive) | > 100 µM (inactive) | 25.5 µM (inactive) | 26.1 µM (inactive) | – | 30.8 µM (inactive) | > 100 µM (inactive) | 41.8 µM (inactive) | 51.5 µM (inactive) | > 100 µM (inactive) | 22.4 µM (inactive) | 31 µM (inactive) | 29.4 µM (inactive) | 32.4 µM (inactive) | –
